Test results as given in patent US20090181963A1, “3H-[1,2,3]TRIAZOLO[4,5-D]PYRIMIDINE COMPOUNDS, THEIR USE AS mTOR KINASE AND PI3 KINASE INHIBITORS, AND THEIR [sequence]” (Wyeth, priority 2008, published 2009).

Legend:
PI3 Kinase α = PI3 Kinase α (Homo sapiens, UniProt P42336); test: Fluorescence polarization assay for PI3K (PI3 Kinase α); format: biochemical; details: diC8-PI(4,5)P2 substrate, 25 μM ATP, one hour at 25° C.
Experimental: Nunc 384 well black polypropylene fluorescent plates were used for PI3K assays. Reactions were quenched by the addition of EDTA to a final concentration of 10 μM. Final reaction volumes were 10 ml. […] Reactions were allowed to proceed for one hour at 25° C. After I hour, GST-tagged GRP1 (general receptor for phosphoinositides) PH domain fusion protein was added to a final concentration of 100 nM, and BODIPY-TMRI(1,3,4,5)P4 (Echelon) was also added to a final concentration of 5 nM. Final sample volumes were 25 μl with a final DMSO concentration of 0.8%. Assay Plates were read on PerkinElmer Envision plate readers with appropriate filters for Tamra [BODIPY-TMRI(1,3,4,5)P4]. Data obtained were used to calculate enzymatic activity and enzyme inhibition by inhibitor compounds.

PI3 Kinase γ = PI3 Kinase γ (Homo sapiens, UniProt P48736); test: Fluorescence polarization assay for PI3K (PI3 Kinase γ); format: biochemical; details: diC8-PI(4,5)P2 substrate, 25 μM ATP, one hour at 25° C.
Sequence of PI3 Kinase γ (P48736 whole entry): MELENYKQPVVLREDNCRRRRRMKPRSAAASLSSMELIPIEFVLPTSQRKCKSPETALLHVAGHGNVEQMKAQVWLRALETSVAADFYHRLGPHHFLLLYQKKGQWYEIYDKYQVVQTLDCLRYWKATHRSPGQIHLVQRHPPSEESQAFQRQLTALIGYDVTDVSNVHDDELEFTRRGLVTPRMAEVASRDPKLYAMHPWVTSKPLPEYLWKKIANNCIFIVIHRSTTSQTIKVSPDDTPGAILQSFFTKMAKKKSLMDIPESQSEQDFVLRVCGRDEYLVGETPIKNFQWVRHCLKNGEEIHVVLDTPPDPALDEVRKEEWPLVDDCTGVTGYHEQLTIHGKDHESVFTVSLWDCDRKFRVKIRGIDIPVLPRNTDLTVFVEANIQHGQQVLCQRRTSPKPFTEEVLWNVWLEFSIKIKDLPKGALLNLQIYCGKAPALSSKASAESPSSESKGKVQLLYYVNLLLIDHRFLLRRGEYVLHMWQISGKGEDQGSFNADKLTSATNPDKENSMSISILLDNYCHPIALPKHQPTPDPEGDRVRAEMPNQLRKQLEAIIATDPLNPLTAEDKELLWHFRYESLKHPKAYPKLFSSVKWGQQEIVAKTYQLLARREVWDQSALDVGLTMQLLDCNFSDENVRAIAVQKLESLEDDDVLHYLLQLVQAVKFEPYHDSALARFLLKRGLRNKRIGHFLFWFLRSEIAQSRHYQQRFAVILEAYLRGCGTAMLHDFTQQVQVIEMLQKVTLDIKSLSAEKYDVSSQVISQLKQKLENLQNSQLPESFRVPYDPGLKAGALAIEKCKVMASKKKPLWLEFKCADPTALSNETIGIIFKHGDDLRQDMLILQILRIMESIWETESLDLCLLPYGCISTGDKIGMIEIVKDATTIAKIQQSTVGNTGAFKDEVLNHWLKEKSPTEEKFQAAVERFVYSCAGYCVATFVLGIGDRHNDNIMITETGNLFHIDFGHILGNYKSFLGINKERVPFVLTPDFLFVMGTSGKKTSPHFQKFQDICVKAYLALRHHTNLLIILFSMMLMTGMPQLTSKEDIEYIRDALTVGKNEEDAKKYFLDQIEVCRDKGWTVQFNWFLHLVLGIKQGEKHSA

Sequence of PI3 Kinase α (P42336 whole entry): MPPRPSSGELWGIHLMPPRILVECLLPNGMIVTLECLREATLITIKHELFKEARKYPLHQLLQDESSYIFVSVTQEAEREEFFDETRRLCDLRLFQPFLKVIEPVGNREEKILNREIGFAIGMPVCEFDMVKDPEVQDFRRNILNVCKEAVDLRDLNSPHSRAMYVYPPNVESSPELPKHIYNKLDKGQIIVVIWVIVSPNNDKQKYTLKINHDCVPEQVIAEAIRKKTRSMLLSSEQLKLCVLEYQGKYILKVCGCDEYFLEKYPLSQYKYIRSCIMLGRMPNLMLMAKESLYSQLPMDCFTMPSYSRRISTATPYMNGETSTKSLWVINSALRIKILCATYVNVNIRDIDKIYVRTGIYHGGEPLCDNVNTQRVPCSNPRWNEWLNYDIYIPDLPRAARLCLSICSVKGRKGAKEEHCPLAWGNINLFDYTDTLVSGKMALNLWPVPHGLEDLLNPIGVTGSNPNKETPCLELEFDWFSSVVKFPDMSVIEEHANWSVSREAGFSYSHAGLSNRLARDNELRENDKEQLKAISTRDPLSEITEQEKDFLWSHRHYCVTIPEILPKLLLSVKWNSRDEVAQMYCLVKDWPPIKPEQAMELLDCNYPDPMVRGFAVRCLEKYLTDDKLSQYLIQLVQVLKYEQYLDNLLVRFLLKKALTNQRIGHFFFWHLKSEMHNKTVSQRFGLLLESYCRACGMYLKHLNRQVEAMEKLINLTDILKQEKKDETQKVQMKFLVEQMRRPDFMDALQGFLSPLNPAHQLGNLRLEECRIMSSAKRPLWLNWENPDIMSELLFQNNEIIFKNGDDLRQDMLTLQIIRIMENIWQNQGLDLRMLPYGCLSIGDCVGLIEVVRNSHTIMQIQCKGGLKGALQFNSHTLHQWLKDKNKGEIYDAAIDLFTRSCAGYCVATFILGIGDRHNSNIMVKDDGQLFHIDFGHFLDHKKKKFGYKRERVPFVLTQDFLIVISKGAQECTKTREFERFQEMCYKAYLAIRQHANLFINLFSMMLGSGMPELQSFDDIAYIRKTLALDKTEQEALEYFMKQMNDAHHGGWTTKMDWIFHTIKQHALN
Sequence of PI3 Kinase α (P27986 whole entry partner): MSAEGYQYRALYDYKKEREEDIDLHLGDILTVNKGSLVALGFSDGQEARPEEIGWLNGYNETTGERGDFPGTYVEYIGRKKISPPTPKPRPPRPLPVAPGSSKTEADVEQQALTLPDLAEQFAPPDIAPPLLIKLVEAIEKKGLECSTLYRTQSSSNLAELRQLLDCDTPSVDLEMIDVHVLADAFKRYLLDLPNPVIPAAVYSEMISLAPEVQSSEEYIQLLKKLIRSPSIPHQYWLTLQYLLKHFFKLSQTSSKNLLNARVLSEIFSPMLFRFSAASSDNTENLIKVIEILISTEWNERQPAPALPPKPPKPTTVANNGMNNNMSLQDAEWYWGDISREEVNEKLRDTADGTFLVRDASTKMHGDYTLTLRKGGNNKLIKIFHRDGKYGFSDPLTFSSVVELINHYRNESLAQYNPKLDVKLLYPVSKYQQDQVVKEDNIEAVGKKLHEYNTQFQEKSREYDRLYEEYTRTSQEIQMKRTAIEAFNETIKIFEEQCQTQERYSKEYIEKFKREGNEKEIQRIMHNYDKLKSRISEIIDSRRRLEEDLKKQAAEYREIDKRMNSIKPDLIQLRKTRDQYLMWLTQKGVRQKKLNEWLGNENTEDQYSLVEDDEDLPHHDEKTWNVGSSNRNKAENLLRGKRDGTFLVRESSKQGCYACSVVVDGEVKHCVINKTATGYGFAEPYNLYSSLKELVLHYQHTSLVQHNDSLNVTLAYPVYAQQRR

O=C(Nc1ccc(-c2nc(N3CCOCC3)c3nnn(C4CCNCC4)c3n2)cc1)Nc1cccnc1 [Example 163, 1-[4-(7-morpholin-4-yl-3-piperidin-4-yl-3H-[1,2,3]triazolo[4,5-d]pyrimidin-5-yl)phenyl]-3-pyridin-3-ylurea]
IC50 (PI3 Kinase α): 13.5 nM | IC50 (PI3 Kinase γ): 49.5 nM

CNC(=O)c1ccc(Cn2nnc3c(N4CCOCC4)nc(-c4cccc(O)c4)nc32)cc1 [Example 207, 4-{[5-(3-hydroxyphenyl)-7-morpholin-4-yl-3H-[1,2,3]triazolo[4,5-d]pyrimidin-3-yl]methyl}-N-methylbenzamide]
IC50 (PI3 Kinase α): 342 nM | IC50 (PI3 Kinase γ): 2640 nM

CCCCN1CCC(n2nnc3c(N4CCOCC4)nc(-c4ccc(NC(=O)NCCN(C)C)cc4)nc32)CC1 [Example 159, 1-(4-(3-(1-butylpiperidin-4-yl)-7-morpholino-3H-[1,2,3]triazolo[4,5-d]pyrimidin-5-yl)phenyl)-3-(2-(dimethylamino)ethyl)urea]
IC50 (PI3 Kinase α): 166 nM | IC50 (PI3 Kinase γ): 685 nM

CCn1nnc2c(N3CCOCC3)nc(-c3ccc(NC(=O)Nc4ccc(C(=O)NCCN5CCN(C)CC5)cc4)cc3)nc21 [Example 49, 4-({[4-(3-ethyl-7-morpholin-4-yl-3H-[1,2,3]triazolo[4,5-d]pyrimidin-5-yl)phenyl]carbamoyl}amino)-N-[2-(4-methylpiperazin-1-yl)ethyl]benzamide]
IC50 (PI3 Kinase α): < 3.1 nM | IC50 (PI3 Kinase γ): 25 nM

CN(C)CCNC(=O)Nc1ccc(-c2nc(N3CCOCC3)c3nnn(C4CCNCC4)c3n2)cc1 [Example 152, 1-(2-(dimethylamino)ethyl)-3-(4-(7-morpholino-3-(piperidin-4-yl)-3H-[1,2,3]triazolo[4,5-d]pyrimidin-5-yl)phenyl)urea]
IC50 (PI3 Kinase α): 104 nM | IC50 (PI3 Kinase γ): 392 nM

Nc1ccccc1C(=O)N1CC(n2nnc3c(N4CCOCC4)nc(-c4cccc(O)c4)nc32)C1 [Example 126, (2-amino-phenyl)-{3-[5-(3-hydroxy-phenyl)-7-morpholin-4-yl-[1,2,3]triazolo[4,5-d]pyrimidin-3-yl]-azetidin-1-yl}-methanone]
IC50 (PI3 Kinase α): 60.5 nM | IC50 (PI3 Kinase γ): 873 nM

O=C(c1ccc(F)cc1)N1CCN(CCn2nnc3c(N4CCOCC4)nc(-c4cccc(O)c4)nc32)CC1 [Example 101, 3-(3-{2-[4-(4-fluorobenzoyl)piperazin-1-yl]ethyl}-7-morpholin-4-yl-3H-[1,2,3]triazolo[4,5-d]pyrimidin-5-yl)phenol]
IC50 (PI3 Kinase α): 538 nM | IC50 (PI3 Kinase γ): 3550 nM

CN(CCNC(=O)Nc1ccc(-c2nc(N3CCOCC3)c3nnn(CC(F)(F)F)c3n2)cc1)C(=O)OC(C)(C)C [Example 139, tert-butyl methyl{2-[({4-[7-morpholin-4-yl-3-(2,2,2-trifluoroethyl)-3H-[1,2,3]triazolo[4,5-d]pyrimidin-5-yl]phenyl}carbamoyl)amino]ethyl}carbamate]
IC50 (PI3 Kinase α): 318 nM | IC50 (PI3 Kinase γ): 1500 nM

Oc1cccc(-c2nc(N3CCOCC3)c3nnn(C4CN(Cc5ccccc5)C4)c3n2)c1 [Example 127, 3-[3-(1-benzylazetidin-3-yl)-7-morpholin-4-yl-3H-[1,2,3]triazolo[4,5-d]pyrimidin-5-yl]phenol]
IC50 (PI3 Kinase α): 134 nM | IC50 (PI3 Kinase γ): 1240 nM

CCn1nnc2c(N3CCOCC3)nc(-c3ccc(NC(=O)Nc4cccs4)cc3)nc21 [Example 40, 1-[4-(3-ethyl-7-morpholin-4-yl-3H-[1,2,3]triazolo[4,5-d]pyrimidin-5-yl)phenyl]-3-(2-thienyl)urea]
IC50 (PI3 Kinase α): 2.5 nM | IC50 (PI3 Kinase γ): 11.5 nM

O=C(Cn1nnc2c(N3CCOCC3)nc(-c3cccc(CO)c3)nc21)Nc1ccc(F)cc1 [Example 238, N-(4-fluorophenyl)-2-{5-[3-(hydroxymethyl)phenyl]-7-morpholin-4-yl-3H-[1,2,3]triazolo[4,5-d]pyrimidin-3-yl}acetamide]
IC50 (PI3 Kinase α): 245 nM | IC50 (PI3 Kinase γ): 2070 nM

CC(C)n1nnc2c(N3CCOCC3)nc(-c3ccc(NC(=O)Nc4ccncc4)cc3)nc21 [Example 82, 1-[4-(3-isopropyl-7-morpholin-4-yl-3H-[1,2,3]triazolo[4,5-d]pyrimidin-5-yl)-phenyl]-3-pyridin-4-yl-urea]
IC50 (PI3 Kinase α): 5 nM | IC50 (PI3 Kinase γ): 21.5 nM

Cc1ccc(CN2CCC(n3nnc4c(N5CCOCC5)nc(-c5ccc(NC(=O)NCCN(C)C)cc5)nc43)CC2)s1 [Example 158, 1-(2-(dimethylamino)ethyl)-3-(4-(3-(1-((5-methylthiophen-2-yl)methyl)piperidin-4-yl)-7-morpholino-3H-[1,2,3]triazolo[4,5-d]pyrimidin-5-yl)phenyl)urea]
IC50 (PI3 Kinase α): 74.5 nM | IC50 (PI3 Kinase γ): 342 nM

Oc1cncc(-c2nc(N3CCOCC3)c3nnn(C4CCN(Cc5ccc(F)c(F)c5)CC4)c3n2)c1 [Example 18, 5-{3-[1-(3,4-difluorobenzyl)piperidin-4-yl]-7-morpholin-4-yl-3H-[1,2,3]triazolo[4,5-d]pyrimidin-5-yl}pyridin-3-ol]
IC50 (PI3 Kinase α): 75 nM | IC50 (PI3 Kinase γ): 261 nM

CC(C)(C)OC(=O)N1CC(n2nnc3c(N4CCOCC4)nc(-c4ccc(NC(=O)Nc5ccncc5)cc4)nc32)C1 [Example 129, tert-butyl 3-(7-morpholin-4-yl-5-{4-[(pyridin-4-ylcarbamoyl)amino]phenyl}-3H-[1,2,3]triazolo[4,5-d]pyrimidin-3-yl)azetidine-1-carboxylate]
IC50 (PI3 Kinase α): 30 nM | IC50 (PI3 Kinase γ): 156 nM

Oc1cccc(-c2nc(N3CCOCC3)c3nnn(CCN4CCN(C5CCCCC5)CC4)c3n2)c1 [Example 106, 3-{3-[2-(4-cyclohexylpiperazin-1-yl)ethyl]-7-morpholin-4-yl-3H-[1,2,3]triazolo[4,5-d]pyrimidin-5-yl}phenol]
IC50 (PI3 Kinase α): 556 nM | IC50 (PI3 Kinase γ): 2140 nM

CN(C)CCCOc1ccc(CN2CCN(CCn3nnc4c(N5CCOCC5)nc(-c5cccc(O)c5)nc43)CC2)cc1 [Example 110, 3-{3-[2-(4-{4-[3-(dimethylamino)propoxy]benzyl}piperazin-1-yl)ethyl]-7-morpholin-4-yl-3H-[1,2,3]triazolo[4,5-d]pyrimidin-5-yl}phenol]
IC50 (PI3 Kinase α): 200 nM | IC50 (PI3 Kinase γ): 402 nM

CCn1nnc2c(N3CCOCC3)nc(-c3ccc(NC(=O)Nc4ccc(C(=O)N5CCN[C@H](C)C5)cc4)cc3)nc21 [Example 54, 1-[4-(3-ethyl-7-morpholin-4-yl-3H-[1,2,3]triazolo[4,5-d]pyrimidin-5-yl)phenyl]-3-(4-{[(3R)-3-methylpiperazin-1-yl]carbonyl}phenyl)urea]
IC50 (PI3 Kinase α): < 1.8 nM | IC50 (PI3 Kinase γ): 7 nM

CC(C)n1nnc2c(N3CCOCC3)nc(-c3ccc(NC(=O)Nc4ccc(N5CCOCC5)cc4)cc3)nc21 [Example 85, 1-[4-(3-Isopropyl-7-morpholin-4-yl-3H-[1,2,3]triazolo[4,5-d]pyrimidin-5-yl)-phenyl]-3-(4-morpholin-4-yl-phenyl)-urea]
IC50 (PI3 Kinase α): 25 nM | IC50 (PI3 Kinase γ): 78 nM

CC(C)CN1CCN(CCn2nnc3c(N4CCOCC4)nc(-c4cccc(O)c4)nc32)CC1 [Example 108, 3-{3-[2-(4-isobutylpiperazin-1-yl)ethyl]-7-morpholin-4-yl-3H-[1,2,3]triazolo[4,5-d]pyrimidin-5-yl}phenol]
IC50 (PI3 Kinase α): 941 nM | IC50 (PI3 Kinase γ): 2770 nM

O=C(O)c1cccc(-n2nnc3c(N4CCOCC4)nc(-c4cccc(O)c4)nc32)c1 [Example 118, 3-[5-(3-hydroxyphenyl)-7-morpholin-4-yl-3H-[1,2,3]triazolo[4,5-d]pyrimidin-3-yl]benzoic acid]
IC50 (PI3 Kinase α): 27.5 nM | IC50 (PI3 Kinase γ): 102 nM

CN(C)CCNC(=O)Cn1nnc2c(N3CCOCC3)nc(-c3cccc(CO)c3)nc21 [Example 239, N-[2-(dimethylamino)ethyl]-2-{5-[3-(hydroxymethyl)phenyl]-7-morpholin-4-yl-3H-[1,2,3]triazolo[4,5-d]pyrimidin-3-yl}acetamide]
IC50 (PI3 Kinase α): 1130 nM | IC50 (PI3 Kinase γ): 5060 nM

Oc1cccc(-c2nc(N3CCOCC3)c3nnn(C4CCN(Cc5ccc(F)cc5)CC4)c3n2)c1 [Example 147, 3-{3-[1-(4-fluorobenzyl)piperidin-4-yl]-7-morpholin-4-yl-3H-[1,2,3]triazolo[4,5-d]pyrimidin-5-yl}phenol]
IC50 (PI3 Kinase α): 59 nM | IC50 (PI3 Kinase γ): 734 nM

CC(C)n1nnc2c(N3CCOCC3)nc(-c3ccc(NC(=O)Nc4cccnc4)cc3)nc21 [Example 83, 1-[4-(3-isopropyl-7-morpholin-4-yl-3H-[1,2,3]triazolo[4,5-d]pyrimidin-5-yl)-phenyl]-3-pyridin-3-yl-urea]
IC50 (PI3 Kinase α): 10.5 nM | IC50 (PI3 Kinase γ): 48.5 nM

CCn1nnc2c(N3CCOCC3)nc(-c3ccc(NC(=O)Nc4ccc(C(N)=O)cc4)cc3)nc21 [Example 60, 4-({[4-(3-ethyl-7-morpholin-4-yl-3H-[1,2,3]triazolo[4,5-d]pyrimidin-5-yl)phenyl]carbamoyl}amino)benzamide]
IC50 (PI3 Kinase α): < 2.6 nM | IC50 (PI3 Kinase γ): 16.5 nM

CC(C)(C)OC(=O)N1CC(Cn2nnc3c(N4CCOCC4)nc(-c4ccc(N)cc4)nc32)C1 [Example 187, tert-Butyl 3-{[5-(4-aminophenyl)-7-morpholin-4-yl-3H-[1,2,3]triazolo[4,5-d]pyrimidin-3-yl]methyl}azetidine-1-carboxylate]
IC50 (PI3 Kinase α): 2080 nM | IC50 (PI3 Kinase γ): 12000 nM

CCn1nnc2c(N3CCOCC3)nc(-c3ccc(NC(=O)Nc4ccc(C(=O)NCCN(C)C)cc4)cc3)nc21 [Example 43, N-[2-(dimethylamino)ethyl]-4-({[4-(3-ethyl-7-morpholin-4-yl-3H-[1,2,3]triazolo[4,5-d]pyrimidin-5-yl)phenyl]carbamoyl}amino)benzamide]
IC50 (PI3 Kinase α): 1 nM | IC50 (PI3 Kinase γ): 18 nM

O=C(O)c1ccc(Cn2nnc3c(N4CCOCC4)nc(-c4cccc(O)c4)nc32)cc1 [Example 242, 4-{[5-(3-hydroxyphenyl)-7-morpholin-4-yl-3H-[1,2,3]triazolo[4,5-d]pyrimidin-3-yl]methyl}benzoic acid]
IC50 (PI3 Kinase α): 509 nM | IC50 (PI3 Kinase γ): 842 nM

CC(C)(C)OC(=O)N1CCC(n2nnc3c(N4CCOCC4)nc(-c4cccc(O)c4)nc32)CC1 [Example 143, tert-butyl 4-[5-(3-hydroxyphenyl)-7-morpholin-4-yl-3H-[1,2,3]triazolo[4,5-d]pyrimidin-3-yl]piperidine-1-carboxylate]
IC50 (PI3 Kinase α): 189 nM | IC50 (PI3 Kinase γ): 3790 nM

CN1CCC(n2nnc3c(N4CCOCC4)nc(-c4cncc(O)c4)nc32)CC1 [Example 22, 5-[3-(1-methylpiperidin-4-yl)-7-morpholin-4-yl-3H-[1,2,3]triazolo[4,5-d]pyrimidin-5-yl]pyridin-3-ol]
IC50 (PI3 Kinase α): 304 nM | IC50 (PI3 Kinase γ): 318 nM
